Results taken from ChEMBL document CHEMBL3244023, “A structure-carcinogenicity study of 4-nitroquinoline 1-oxides using the SIMCA method of pattern recognition” (J Med Chem, 1978).

What was measured:
Mus musculus = experiment: Carcinogenicity in mouse assessed as tumor development administered sc in left groin 6 times at 10-day interval; type: toxicity, organism-based; settings: in vivo
[1] = Lipophilicy, log P of the compound; type: physicochemical; settings: octanol/water

Row | Structure (SMILES) | logP [1] | Activity (Mus musculus)
1 | Cc1cc([N+](=O)[O-])c2ccccc2[n+]1[O-] | 1.25 | Toxic
2 | O=[N+]([O-])c1cc[n+]([O-])c2c(F)cccc12 | 1 | 
3 | CCc1cc([N+](=O)[O-])c2ccccc2[n+]1[O-] | 1.76 | Toxic
4 | O=[N+]([O-])c1cccc2c1c([N+](=O)[O-])cc[n+]2[O-] | 0.95 | 
5 | O=[N+]([O-])c1cc[n+]([O-])c2c([N+](=O)[O-])cccc12 | 0.76 | Non-toxic
6 | CC(C)(C)c1cc([N+](=O)[O-])c2ccccc2[n+]1[O-] | 1.07 | 
7 | CCc1c(C)c([N+](=O)[O-])c2ccccc2[n+]1[O-] | 2.56 | 
8 | CC(C)(C)c1ccc2c(c1)c(NO)cc[n+]2[O-] | 2.05 | Non-toxic
9 | CCCCCCc1ccc2c(c1)c([N+](=O)[O-])cc[n+]2[O-] | 3.26 | Non-toxic
10 | CCCCCCc1ccc2c(c1)c(NO)cc[n+]2[O-] | 3.35 | Non-toxic
11 | [O-][n+]1ccc(NO)c2cc(C3CCCCC3)ccc21 | 2.89 | Non-toxic
12 | O=[N+]([O-])c1cc[n+]([O-])c2ccc(C3CCCCC3)cc12 | 2.8 | Non-toxic
13 | Cc1cccc2c1c([N+](=O)[O-])cc[n+]2[O-] | 1.25 | Toxic
14 | Cc1cccc2c([N+](=O)[O-])cc[n+]([O-])c12 | 1.48 | Toxic
15 | O=[N+]([O-])c1ccc2c(c1)c(NO)cc[n+]2[O-] | -0.28 | Toxic
16 | CCCCc1ccc2c(c1)c(NO)cc[n+]2[O-] | 2.1 | Toxic
17 | Cc1c[n+]([O-])c2ccccc2c1[N+](=O)[O-] | 1.24 | 
18 | O=[N+]([O-])c1c(Cl)c[n+]([O-])c2ccccc12 | 1.33 | 
19 | O=[N+]([O-])c1c(F)c[n+]([O-])c2ccccc12 | 1.25 | 
20 | O=[N+]([O-])c1c(Br)c[n+]([O-])c2ccccc12 | 1.99 | Toxic
21 | COc1c[n+]([O-])c2ccccc2c1[N+](=O)[O-] | 0.43 | Non-toxic
22 | O=[N+]([O-])c1cc[n+]([O-])c2ccccc12 [4-NITROQUINOLINE-1-OXIDE] | 1.01 | Toxic

Continued, in another order:

Row | logP [1] | Structure (SMILES) | Activity (Mus musculus)
23 | 0.45 | O=[N+]([O-])c1ccc2c([N+](=O)[O-])cc[n+]([O-])c2c1 | Non-toxic
24 | 1.24 | Cc1ccc2c(c1)c([N+](=O)[O-])cc[n+]2[O-] | Toxic
25 | 1.49 | Cc1ccc2c([N+](=O)[O-])cc[n+]([O-])c2c1 | Toxic
26 | 3.11 | CCCCc1ccc2c(c1)c([N+](=O)[O-])cc[n+]2[O-] | Toxic
27 | 3.06 | CC(C)(C)c1ccc2c(c1)c([N+](=O)[O-])cc[n+]2[O-] | 
28 | 0.9 | O=[N+]([O-])c1ccc2c(c1)c([N+](=O)[O-])cc[n+]2[O-] | 
29 | 1.4 | O=[N+]([O-])c1cc[n+]([O-])c2ccc(Cl)cc12 | Toxic
30 | 2.49 | O=[N+]([O-])c1cc[n+]([O-])c2cc(Cl)c(Cl)cc12 | Toxic
31 | 1.75 | O=[N+]([O-])c1cc[n+]([O-])c2cc(Cl)ccc12 | Toxic
32 | 0.42 | O=C(O)c1ccc2c(c1)c([N+](=O)[O-])cc[n+]2[O-] | 
33 | 1.75 | O=[N+]([O-])c1cc[n+]([O-])c2cccc(Cl)c12 | Toxic
